Experiment [1] relates to HLA-DR and HLA-DP molecules. Put plainly: MHC class II binding assays, panel of twelve HLA class II molecules (number of alleles bound). To be noted: number of the twelve class II MHC alleles bound; title: Threshold 600 nM/5 alleles.
Experiment [2] deals with T1, DR1=HLA-DR(α1*0101,α1*0101) (Homo sapiens, UniProt P01903+P01911, A100R/D57E/F55L/F60I/F76Y/I96L/L162R/M171V/P40L/Q125E/R42F/V115G/Y59C).
T1 construct: endogenous in cells; host or cells: EBV homozygous human B cell line
Put plainly: biochemical. In kind it is binding. The following applies: […].

Experiment [3] deals with T2, DR3=HLA-DR(α1*0101,α1*0301) (Homo sapiens, UniProt P01903+P01911, A100K/A102G/A103R/A169T/F55Y/I96L/K41T/L162R/M171V/P40S/Q125H/Q178H/Q39Y/R42S/S66N/T106N/T262R/W38E/Y61H).
T2 construct: endogenous in cells; host or cells: STEILIN (EBV homozygous B cell line)
Kind of experiment: HLA-DR specific binding assay, DR3.

The target in experiment [4] is T3, DR4=HLA-DR(α1*0101,α1*0401) (Homo sapiens, UniProt P01903+P01911, A100K/A169T/F76Y/I96L/K127E/L162R/M171V/N62H/P40V/Q125Y/R42H/S133A/S149N/S66Y/V115G/V209L/W38E).
T3 construct: endogenous in cells; host or cells: BOLETH (EBV homozygous B cell line)
Kind of experiment: biochemical. Format: binding.

For experiment [5], the target named is T4, DR7=HLA-DR(α1*0101,α1*0701) (Homo sapiens, UniProt P01903+P01911, A100R/A102G/A103Q/D57E/D86V/E43K/F76Y/K127E/L162R/M171V/P40G/Q125H/Q99D/R33Q/R42Y/R54Q/S133A/S66F/T210M/V115G/Y107V/Y59L/Y89S).
T4 construct: endogenous in cells; host or cells: EBV homozygous human B cell line
Kind of experiment: HLA-DR specific binding assay, DR7.

Experiment [6] addresses T5, DR11=HLA-DR(α1*0101,α1*1101) (Homo sapiens, UniProt P01903+P01911, A100R/A169T/A87E/I96F/K41T/L162R/M171V/P40S/Q125H/Q178H/Q39Y/Q99D/R42S/S66Y/T262R/V115G/W38E).
T5 construct: endogenous in cells; host or cells: SWEIG (EBV homozygous B cell line)
Kind of experiment: biochemical. In kind it is binding.

Experiment [7] has as its target T6, DR13=HLA-DR(α1*0101,α1*1301) (Homo sapiens, UniProt P01903+P01911, A100E/A169T/K41T/L162R/M171V/P40S/Q125H/Q178H/Q39Y/Q99D/R42S/S66N/T262R/W38E/Y61H).
T6 construct: endogenous in cells; host or cells: 0206AD (EBV homozygous B cell line)
Kind of experiment: HLA-DR specific binding assay, DR13.

For experiment [8], the target named is T7, DR15=HLA-DR(α1*0101,α1*1501) (Homo sapiens, UniProt P01903+P01911).
T7 construct: endogenous in cells; host or cells: EBV homozygous human B cell line
Put plainly: HLA-DR specific binding assay, DR15.

In experiment [9] the target is T8, DRB3=HLA-DR(α1*0101,α3*0101) (Homo sapiens, UniProt P01903+P79483).
T8 construct: endogenous in cells; host or cells: STEILIN or 0206AD (both typed DRB3*0101)
T8 sequence (P79483 30-266, other chains not shown): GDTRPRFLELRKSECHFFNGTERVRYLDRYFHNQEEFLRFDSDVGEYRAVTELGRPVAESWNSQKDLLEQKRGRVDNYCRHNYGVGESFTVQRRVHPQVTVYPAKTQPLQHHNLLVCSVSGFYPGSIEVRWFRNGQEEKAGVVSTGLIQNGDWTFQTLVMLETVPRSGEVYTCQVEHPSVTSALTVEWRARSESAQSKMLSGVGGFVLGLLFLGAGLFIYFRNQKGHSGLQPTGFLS
Kind of experiment: HLA-DR specific binding assay, DRB3 (DR52).

The target of experiment [10] is T9, DRB4=HLA-DR(α1*0101,α4*0101) (Homo sapiens, UniProt P01903+P13762, G164S).
T9 construct: endogenous in cells
Put plainly: HLA-DR specific binding assay, DRB4 (DR53).

For experiment [11], the target named is T10, DP401=HLA-DP(α1*0101,α1*0401) (Homo sapiens, UniProt P04440+P20036).
T10 sequence (P20036 32-260 limits assumed): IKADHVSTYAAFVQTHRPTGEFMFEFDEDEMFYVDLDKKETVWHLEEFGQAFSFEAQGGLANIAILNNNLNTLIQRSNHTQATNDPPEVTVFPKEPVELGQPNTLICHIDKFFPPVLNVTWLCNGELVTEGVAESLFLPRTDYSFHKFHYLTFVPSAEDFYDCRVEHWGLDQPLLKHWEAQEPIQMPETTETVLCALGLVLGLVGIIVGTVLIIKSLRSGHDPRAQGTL
T10 sequence (P04440 30-258): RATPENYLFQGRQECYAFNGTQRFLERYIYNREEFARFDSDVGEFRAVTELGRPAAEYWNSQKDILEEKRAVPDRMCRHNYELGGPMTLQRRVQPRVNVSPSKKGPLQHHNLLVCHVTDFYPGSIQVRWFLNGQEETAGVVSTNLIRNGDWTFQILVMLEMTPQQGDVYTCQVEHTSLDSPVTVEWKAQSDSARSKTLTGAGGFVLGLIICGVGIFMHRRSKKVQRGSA
Kind of experiment: biochemical. In kind it is binding.

For experiment [12], the target named is T11, DP402 DP (α1*0101, α1*0402) (Homo sapiens, UniProt P04440+P20036, A65V/A84D/A85E/L207M).
T11 sequence (P20036 29-260): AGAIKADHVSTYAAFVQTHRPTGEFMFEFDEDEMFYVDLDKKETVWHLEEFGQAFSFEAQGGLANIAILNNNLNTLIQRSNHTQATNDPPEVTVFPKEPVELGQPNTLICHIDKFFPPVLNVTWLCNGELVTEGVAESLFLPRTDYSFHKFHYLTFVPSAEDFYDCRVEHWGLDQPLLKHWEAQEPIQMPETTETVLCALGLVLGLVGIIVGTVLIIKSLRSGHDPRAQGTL
T11 sequence (P04440 30-258 A65V/A84D/A85E): T10 sequence (P04440 30-258) with A36V, A55D, A56E
Put plainly: biochemical. Format: binding.

The target of experiment [13] is T12, DRB5=HLA-DR(α1*0101,α5*0101) (Homo sapiens, UniProt P01903+Q30154).
T12 construct: endogenous in cells; host or cells: EBV homozygous human B cell line
T12 sequence (Q30154 30-266, other chains not shown): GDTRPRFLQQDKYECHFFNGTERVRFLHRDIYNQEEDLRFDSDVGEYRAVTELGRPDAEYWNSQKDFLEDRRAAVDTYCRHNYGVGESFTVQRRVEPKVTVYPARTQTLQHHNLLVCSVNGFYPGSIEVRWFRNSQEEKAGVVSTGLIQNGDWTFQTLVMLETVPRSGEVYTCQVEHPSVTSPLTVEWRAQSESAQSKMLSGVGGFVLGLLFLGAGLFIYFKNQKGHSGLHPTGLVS
Put plainly: biochemical. In kind it is binding. To be noted: Table V; […]; read-out: IC50 DRB5.

Setting [14] is: Table V, […], read-out: IC50 DR4.
[15] abbreviates: Table V, […], read-out: IC50 DR11.

Where a chain is given by its changes, count along the chain named. Like-named read-outs stand apart in the source and are kept apart here.

As usually defined, the IC50 is the concentration that gives 50% inhibition.

With `CC[C@H](C)[C@H](N)C(=O)N[C@H](C(=O)N[C@@H](CCC(N)=O)C(=O)N[C@@H](Cc1ccccc1)C(=O)N[C@H](C(=O)N[C@@H](CC(C)C)C(=O)N[C@@H](CCC(=O)O)C(=O)N[C@@H](Cc1c[nH]cn1)C(=O)N[C@@H](CCCNC(=N)N)C(=O)N[C@@H](C)C(=O)N[C@@H](CCCCN)C(=O)NCC(=O)N[C@@H](CO)C(=O)N[C@@H](CS)C(=O)N[C@@H](CCCCN)C(=O)N[C@@H](Cc1ccc(O)cc1)C(=O)N[C@@H](C)C(=O)N[C@@H](CC(C)C)C(=O)N1CCC[C@H]1C(=O)N[C@@H](CC(C)C)C(=O)N[C@@H](CCCNC(=N)N)C(=O)N[C@H](C(=O)N1CCC[C@H]1C(=O)N1CCC[C@H]1C(=O)N[C@@H](CO)C(=O)N[C@@H](C)C(=O)N[C@@H](CS)C(=O)N[C@@H](CC(C)C)C(=O)N[C@@H](CO)C(=O)N1CCC[C@H]1C(=O)N[C@@H](CCC(N)=O)C(=O)O)[C@@H](C)CC)[C@@H](C)CC)[C@@H](C)O` [HSV 38], the Range in experiment [1] came to 8.
For the compound `CC[C@H](C)[C@H](NC(=O)[C@H](CCCCN)NC(=O)[C@H](CC(C)C)NC(=O)[C@H](CO)NC(=O)[C@H](Cc1ccc(O)cc1)NC(=O)[C@@H](NC(=O)[C@H](C)NC(=O)[C@@H](NC(=O)[C@@H](NC(=O)[C@H](CCCNC(=N)N)NC(=O)[C@@H](N)CCC(N)=O)[C@@H](C)O)C(C)C)C(C)C)C(=O)N[C@@H](C)C(=O)NCC(=O)N[C@@H](Cc1c[nH]c2ccccc12)C(=O)N[C@@H](Cc1c[nH]cn1)C(=O)NCC(=O)N1CCC[C@H]1C(=O)N[C@@H](CCCCN)C(=O)N[C@@H](C)C(=O)N1CCC[C@H]1C(=O)N[C@@H](Cc1ccc(O)cc1)C(=O)N[C@H](C(=O)N[C@@H](CO)C(=O)N[C@H](C(=O)N[C@@H](CC(C)C)C(=O)N[C@@H](CC(C)C)C(=O)N1CCC[C@H]1C(=O)N1CCC[C@H]1C(=O)N[C@@H](CCC(=O)O)C(=O)N[C@@H](CC(C)C)C(=O)O)[C@@H](C)O)[C@@H](C)O` [HSV 40], the concentration for half-maximal inhibition (IC50) in experiment [2] (Table V, read-out: IC50 DR1) worked out at 1160 nM; in [2] (Class II MHC allele DR1, read-out: IC50, DR1) it was 1160 nM; in experiment [3] (IC50, DR3, Class II MHC allele DR3) it was 2390 nM; in experiment [3] (IC50 DR3, Table V, […]) it was 2390 nM; in [4] (Class II MHC allele DR4, read-out: IC50, DR4) it was 9920 nM; in experiment [4] (setting [14]), 9920 nM. Also, the IC50 in [5] is 20 nM; in experiment [6] (Class II MHC allele DR11, read-out: IC50, DR11), 39 nM; in experiment [6] (setting [15]) it was 39 nM; in experiment [7] it was 1590 nM; in experiment [8], 2 nM; in experiment [9] (IC50, DRD3, Class II MHC allele DRD3 (so in the source)), > 100000 nM. In addition, the IC50 in experiment [9] (IC50 DRB3, Table V, […]) is > 100000 nM; in experiment [10] it was 1160 nM; in [11] (Class II MHC allele DP401) it was 1360 nM; in experiment [11] (Table V, […]) it was 1360 nM; in experiment [12] (Class II MHC allele DP402) it was 7210 nM; in experiment [12] (Table V, […]), 7210 nM. The compound further showed a Range in experiment [1] of 4.
Turning to `CSCC[C@H](NC(=O)[C@H](CC(=O)O)NC(=O)[C@@H](NC(=O)[C@@H](NC(=O)[C@H](CCCCN)NC(=O)[C@H](C)NC(=O)[C@H](CO)NC(=O)[C@H](CC(C)C)NC(=O)[C@H](CC(C)C)NC(=O)[C@H](C)NC(=O)[C@H](CO)NC(=O)[C@@H](NC(=O)CN)[C@@H](C)O)C(C)C)[C@@H](C)O)C(=O)N[C@H](C(=O)N[C@@H](CCSC)C(=O)N[C@@H](CCCNC(=N)N)C(=O)N[C@@H](CCCCN)C(=O)N[C@@H](CCCNC(=N)N)C(=O)N[C@@H](CCCNC(=N)N)C(=O)N[C@@H](CC(N)=O)C(=O)N[C@H](C(=O)N[C@@H](CC(N)=O)C(=O)N[C@@H](Cc1ccc(O)cc1)C(=O)N[C@H](C(=O)N[C@@H](CCC(N)=O)C(=O)N[C@H](C(=O)N1CCC[C@H]1C(=O)N[C@@H](CC(N)=O)C(=O)N[C@@H](CCCCN)C(=O)N[C@@H](CC(=O)O)C(=O)NCC(=O)N[C@@H](CC(=O)O)C(=O)N[C@@H](C)C(=O)N[C@@H](CC(=O)O)C(=O)O)C(C)C)[C@@H](C)O)[C@@H](C)O)C(C)C` [HSV 9], the IC50 in experiment [2] (Table V, read-out: IC50 DR1) came out at 493 nM; in experiment [3] (IC50 DR3, Table V, […]), 11400 nM; in [4] (setting [14]) it was 4000 nM; in experiment [5], 229 nM; in experiment [6] (setting [15]), 424 nM; in [7] it was 362 nM. Further, the IC50 in [8] is 2430 nM; in [9] (IC50 DRB3, Table V, […]) it was 58000 nM; in [10], 16000 nM; in experiment [13] it was 559 nM; in experiment [11] (Table V, […]), 8000 nM; in experiment [12] (Class II MHC allele DP402) it was 4000 nM. Also, half-maximal inhibition in experiment [12] (Table V, […]) (IC50) was put at 4000 nM.

The record behind these values is US20080299140A1, “Immunogenic Composition and Peptide Sequences for Prevention and Treatment of an Hsv Condition” (priority 2002, published 2008).
